Structures are written as SMILES. ≈ marks a conversion by molar mass, not a printed value. Counter-ions that a name gives are not always drawn.

The test system of one assay is S. aureus ATCC 29213. The assay can be described thus: MIC by agar dilution, S. aureus ATCC 29213. It counts as cell-based. To be noted: Staphylococcus aureus, ATCC29213; agar dilution; S. aureus ATCC 29213; read-out: MIC. Here is the method:
(§1) The compounds of the invention were evaluated against several β-lactamresistant bacteria strains by determining the minimum inhibitory concentration (MIC, μg/ml) of each compound with respect to each strain. The MIC, the lowest concentration of antibiotic which inhibits growth of the test organism, was determined by the agar dilution method.
(§2) To determine the MIC for bacterial isolates, the test compound was incorporated in a series of two-fold dilutions into liquified Mueller-Hinton agar. Upon solidification, a number of different bacterial strains were spot inoculated with a replicating device onto the agar surface. […] The procedures used in these studies have been standardized by the National Committee for Clinical Laboratory Standards (NCCLS), as per the NCCLS publication entitled METHODS FOR DILUTION ANTIMICROBIAL SUSCEPTIBILITY TESTS (1991), which is incorporated herein by reference.
(§3) Aliquots of antimicrobial agents were prepared in phosphate buffered saline (PBS) at pH 7.2. Tween 20 or DMSO was used as a solubilizing vehicle as needed. Standard methods of vortexing, sonicating and gentle heat were used to facilitate solubilizing the test agent. Typically, the concentration of the stock solution was 10× that of the highest drug concentration tested. A 1.28 mg/mL stock solution was used with a subsequent highest working concentration of 128 μg/mL. Serial two-fold dilutions were done through ≤0.25 μg/mL. Each drug level was tested in duplicate. Two-fold drug dilutions were done in sterile 50 mL tubes with a final drug volume of 5 mL. Upon the addition of 45 mL of molten agar, a 10-fold dilution resulted. Two, 25 mL. plates were then poured into 15×150 mm square Petri plates with grids and allowed to harden.
(§4) A control plate with a reference drug, either cefotaxime, vancomycin or imipenem, was used as the positive growth control. Stock concentrations of reference antibiotics were prepared and frozen at -80° C. Upon preparation, the control plates were sealed and stored in the refrigerator for up to 1 week prior to use; however, imipenem control plates had to be prepared just prior to use. All test plates were used within 24 hours of preparation.
(§5) Satisfactory results were obtained where the inoculum contained about 10^4 colony forming units (cfu) ±0.5 logs. Starting with pure cultures of the test isolates on agar plates, a few isolated colonies were transferred to a tube of nutrient broth and allowed to grow 4-6 hours at 35°-36° C. to reach log-phase growth. Dropwise addition of the broth culture to PBS was done to match a 0.5 McFarland turbidity standard equal to 10^8 cfu/mL. This was further diluted ten-fold in PBS to reach a working inoculum concentration of 10^7 cfu/mL. When 1 μL of the working inoculum was applied to the agar surface a concentration of about 10^4 cfu per spot was obtained.
(§6) Disposable sterile 1 μL loops were used to inoculate test plates, with each isolate in a designated grid on the agar plate. An alternate method of inoculation involved the use of a replica plater, a device with 48 steel pins allowing the simultaneous inoculation of multiple isolates. After the spots had dried, the plates were incubated at 35°-36° C. for 16-20 hours. Endpoints were assessed as the minimum inhibitory concentration (MIC) of antimicrobial agent.

In assay [1] the test system is S. aureus Col (Meth^R) (lac^-). Description: MIC by agar dilution, S. aureus Col (Meth^R) (lac^-). It counts as cell-based. The settings on record: Staphylococcus aureus; agar dilution; S. aureus Col (Meth^R) (lac^-); read-out: MIC. Put shortly: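 Log-phase isolates were spot-inoculated at about 10^4 cfu onto Mueller-Hinton agar carrying duplicate two-fold compound levels, 128 μg/mL to ≤0.25 μg/mL, following NCCLS (1991). Plates were read after 16-20 h at 35°-36° C. The lowest growth-inhibiting concentration gave the MIC (μg/ml).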

Assay [2] has as its system methicillin-susceptible S. aureus strain ATCC 13709. The assay can be described thus: murine model for lethal bacteremic peritonitis. The settings on record: subcutaneous, 72 h. It counts as in vivo, female Swiss-Webster mice. Here is the method: Groups of 5 female Swiss-Webster mice (Simonsen, Gilroy, Calif.) each are challenged by the intraperitoneal (IP) route with tenfold increments of a bacterial inoculum. This permits calculation of the mean lethal dose (LD50) and the LD100. For preliminary evaluation of a new antibiotic, mice are challenged IP with an LD100 titer of bacteria. In two equal doses administered at the time of bacterial challenge and 2 hours later, groups of 10 mice each are treated subcutaneously with two-fold increments of the test drug and an antibiotic of known efficacy in mice and humans (i.e., positive control). Mice are observed for 72 h. Those alive at 72 h are considered long term survivors. The total drug dose in mg/kg that protects 50% of mice in a group from death is termed the mean protective dose (PD50). PD50 s are similarly determined for several pathogens. The quantitative endpoints for the new drug are then compared with those obtained with reference antibiotics.
Six ten-fold dilutions of inoculum suspended in 0.5 mL of sterilized 7% hog gastric mucin (Sigma) are injected IP in groups of 5 mice each. A control group of 5 mice receive mucin alone. Mice are observed for 72 h. Those alive at 72 h are considered long term survivors. The mean lethal dose (LD50) and 100% lethal dose (LD100) are determined by the probit test.
For antibiotic efficacy studies, mice are challenged IP with bacterial titers that will afford an LD100 for the test strain. In two equal doses administered at the time of bacterial challenge and 2 hours later, groups of 10 mice each are treated by the subcutaneous route (SC) with twofold increments of the test antibiotic; another group is treated similarly with a reference antibiotic of known efficacy in animals and man. Drug doses can range from 0.01 to 512 mg/kg. If the drug is poorly soluble, Tween 20 or propylene glycol will be employed to solubilize the drug. Animals are observed for 72 h. The 50% protective dose (PD50) is calculated in mg/kg by the probit method. The PD50 is the same as the 50% effective dose (ED50) and the 50% curative dose (CD50). Samples of blood from the hearts of all animals that die and from half the mice that survive are cultured on brain-heart infusion agar. Animals that received a protective dosage of the test drug will be alive at 72 h, although they may appear moderately ill to very ill during the observation period. […] Most of these mice will die within 6 to 48 h. Those alive at 72 h will be considered long term survivors.
(Compound numbers correspond to those in MIC tables; data
reported for challenge with methicillin-susceptible S. aureus

Assay [3] deals with S. aureus Col8A (Meth^S) (lac^-). The assay can be described thus: MIC by agar dilution, S. aureus Col8A (Meth^S) (lac^-). It counts as cell-based. To be noted: Staphylococcus aureus; agar dilution; S. aureus Col8A (Meth^S) (lac^-); read-out: MIC. How it is done:
as §1, §2, §3, §4, §5, §6
The novel agents of this invention are notable for their enhanced activity against S. aureus Col and Enterococci (E. faecium and E. faecalis). The S. aureus Col strain is a high-level PBP2a producer, whereas S. aureus Col 8A, its isogenic partner, lacks PBP2a. […] Thus, the compounds of the present invention are effective against PBP2a-producing bacteria.

For `O=C(CS/C=C\Cl)N[C@@H]1C(=O)N2C(C(=O)O)=C(Sc3ccnn3-c3ccccc3)CS[C@H]12` [Cmpd 131, (7R)-7-[((Z-2-Chlorovinyl)thioacetyl)amino]-3-(1-N-phenylpyrazol-5-ylthio)-3-cephem-4-carboxylic acid], the minimal inhibitory concentration (MIC) is less than 0.06 µg/mL in the assay with S. aureus ATCC 29213 and 1 µg/mL (≈ 1.96 µM) in assay [1]. The Mortality was 9/10 in assay [2] (dose 0.625 mg/kg); 7/10 in assay [2] (dose 1.25 mg/kg); 4/10 in assay [2] (dose 2.5 mg/kg); 0/10 in assay [2] (dose 5 mg/kg); 0/10 in assay [2] (dose 10 mg/kg).
For the molecule `O=C(O)C1=C(Sc2ccnn2-c2ccccc2)CS[C@@H]2[C@H](NC(=O)C3SCCS3)C(=O)N12` [Cmpd 115, (7R)-7-[(2-dithiolanylcarbonyl)amino]-3-(1-N-phenylpyrazol-5-ylthio)-3-cephem-4-carboxylic acid], the MIC in assay [1] was 4 µg/mL (≈ 7.89 µM). Further, the Mortality is reported as 8/10 in assay [2] (dose 0.625 mg/kg); 9/10 in assay [2] (dose 1.25 mg/kg); 7/10 in assay [2] (dose 2.5 mg/kg); 4/10 in assay [2] (dose 5 mg/kg); 0/10 in assay [2] (dose 10 mg/kg).
Take `N#Cc1ncccc1SC1=C(C(=O)O)N2C(=O)[C@@H](NC(=O)Cc3ccccc3)[C@H]2SC1` [Cmpd 102, (7R)-7-[(Phenylacetyl)amino]-3-(2-cyanopyridin-3-ylthio)-3-cephem-4-carboxylic acid]: the minimal inhibitory concentration (MIC) in assay [1] is 4 µg/mL (≈ 8.84 µM). Further, the Mortality is on record as 10/10 in assay [2] (dose 0.3125 mg/kg); 8/10 in assay [2] (dose 0.625 mg/kg); 7/10 in assay [2] (dose 1.25 mg/kg); 5/10 in assay [2] (dose 2.5 mg/kg); 0/10 in assay [2] (dose 5 mg/kg).
For the molecule `Nc1nc(/C(=N/OCC2CC2)C(=O)N[C@@H]2C(=O)N3C(C(=O)O)=C(Sc4ccnn4-c4ccccc4)CS[C@H]23)cs1` [Cmpd 108, (7R)-7-[(Z)-2-(2-aminothiazol-4-yl)-2-(cyclopropylmethyloxyimino)acetamido]-3-(1-N-phenylpyrazol-5-ylthio)-3-cephem-4-carboxylic acid], the MIC in assay [1] worked out at 4 µg/mL (≈ 6.69 µM). In addition, the Mortality in assay [2] (dose 0.625 mg/kg) is 9/10; in assay [2] (dose 1.25 mg/kg) it was 8/10; in assay [2] (dose 2.5 mg/kg), 9/10; in assay [2] (dose 5 mg/kg) it was 10/10; in assay [2] (dose 10 mg/kg) it was 10/10.
Regarding `O=C(CSc1ccncc1)N[C@@H]1C(=O)N2C(C(=O)O)=C(Sc3ccnn3-c3ccccc3)CS[C@H]12` [Cmpd 110, (7R)-7-[(4-pyridylthioacetyl)amino]-3-(1-N-phenylpyrazol-5-ylthio)-3-cephem-4-carboxylic acid], the MIC in assay [1] was determined as 2 µg/mL (≈ 3.8 µM). For the same molecule, the Mortality in assay [2] (dose 0.625 mg/kg) is 8/10; in assay [2] (dose 1.25 mg/kg), 7/10; in assay [2] (dose 2.5 mg/kg), 8/10; in assay [2] (dose 5 mg/kg) it was 6/10; in assay [2] (dose 10 mg/kg), 0/10.
As to `O=C(Cc1ccccc1)N[C@@H]1C(=O)N2C(C(=O)O)=C(Sc3cccnc3-c3ccccc3)CS[C@H]12` [Cmpd 81, (7R)-7-[(Phenylacetyl)amino]-3-(2-phenylpyridin-3-ylthio)-3-cephem-4-carboxylic acid], the MIC in assay [1] worked out at 2 µg/mL (≈ 3.97 µM). In addition, the Mortality in assay [2] (dose 2 mg/kg) was 8/10; in assay [2] (dose 4 mg/kg) it was 10/10; in assay [2] (dose 8 mg/kg), 5/10; in assay [2] (dose 16 mg/kg), 2/10.
Take `O=C(CC1CC1)N[C@@H]1C(=O)N2C(C(=O)O)=C(Sc3ccnn3-c3ccccc3)CS[C@H]12` [Cmpd 107, (7R)-7-[(cyclopropylacetyl)amino]-3-(1-N-phenylpyrazol-5-ylthio)-3-cephem-4-carboxylic acid]: the minimum inhibitory concentration (MIC) in assay [1] was found to be 4 µg/mL (≈ 8.76 µM). The Mortality in assay [2] (dose 0.625 mg/kg) is given as 8/10; in assay [2] (dose 1.25 mg/kg), 6/10; in assay [2] (dose 2.5 mg/kg) it was 5/10; in assay [2] (dose 5 mg/kg), 0/10; in assay [2] (dose 10 mg/kg), 0/10.
Regarding `Nc1nc(/C(=N/OC2CCCC2)C(=O)N[C@@H]2C(=O)N3C(C(=O)O)=C(Sc4ccnn4-c4ccccc4)CS[C@H]23)cs1` [Cmpd 89, (7R)-7-[(Z)-2-(aminothiazol-4-yl)-2-(cyclopentyloxyimino)acetamido]-3-(1-N-phenylpyrazol-5-ylthio)-3-cephem-4-carboxylic acid], the MIC in assay [1] is 2 µg/mL (≈ 3.27 µM). Besides, the Mortality was 9/10 in assay [2] (dose 0.625 mg/kg); 9/10 in assay [2] (dose 1.25 mg/kg); 9/10 in assay [2] (dose 2.5 mg/kg); 8/10 in assay [2] (dose 5 mg/kg); 8/10 in assay [2] (dose 10 mg/kg).
Regarding `N=C(N)SCc1ccccc1SC1=C(C(=O)O)N2C(=O)[C@@H](NC(=O)Cc3ccccc3CN)[C@H]2SC1` [Cmpd 101, (7R)-7-[((2-Aminomethylphenyl)acetyl)amino]-3-(2-isothiouroniummethylphenylthio)-3-cephem-4-carboxylate, trifluoroacetic acid salt], in assay [1], the MIC is 4 µg/mL. For the same molecule, the Mortality was 5/10 in assay [2] (dose 0.625 mg/kg); 2/10 in assay [2] (dose 1.25 mg/kg); 0/10 in assay [2] (dose 2.5 mg/kg); 0/10 in assay [2] (dose 5 mg/kg); 0/10 in assay [2] (dose 10 mg/kg).
Regarding `O=C(COc1ccccc1)N[C@@H]1C(=O)N2C(C(=O)O)=C(Sc3ccnn3-c3ccccc3)CS[C@H]12` [Cmpd 112, (7R)-7-[(phenyloxyacetyl)amino]-3-(1-N-phenylpyrazol-5-ylthio)-3-cephem-4-carboxylic acid], the figures for the MIC (with S. aureus ATCC 29213; in assay [1]; in assay [3]) were not above 0.06 µg/mL, 4 µg/mL (≈ 7.87 µM) and not above 0.06 µg/mL, respectively.

These data come from patent US5698547A, “Cephalosporin antibiotics” (Microcide Pharmaceuticals, Inc., priority 1995, dated 1997).
